# Earlier results in US20230414783A1, “Biliary Delivery Methods, Compositions and Kits for Use Therein” (AMBYS MEDICINES, INC., priority 2020, published 2023).
# Test system: lysyl oxidase (LOX) family enzymes
# Details: subcutaneous injection or intravenous infusion; human subjects
smiles,measurement,value
Cc1cc(F)c(C(=O)Nc2cccc(-c3nncn3C(C)C)n2)cc1-n1cnc(C2CC2)c1 [selonsertib],clinical efficacy,did not demonstrate clinical efficacy
